Reference: US6127519A, “Calcitonin derivatives” (Tsumura & Co., priority 1990, dated 2000)
“And” between values parts separate entries of the source, which are not always exact repeats. Equal values may be shown once. Bridge positions count the residues as written; N and C are the ends. Square brackets hold non-standard residues; d marks the D form. Peptide text beside a SMILES is read from it. Orn = NCCC[C@H](N)C(=O)O

Test system: calcium concentration in the serum
Assay: Test 1: reduction of calcium level in serum after tail vein administration to rats
Format: in vivo, rats of the Wistar strain
Conditions: 1 ml/kg tail vein, female Wistar rats
Description: Six-weeks-old female rats of the Wistar strain (each group consisting of 4 rats) were used as the test animal, and the peptides of the present invention obtained in the examples given hereinafter were tested at concentrations adjusted with a 1% aqueous solution of sodium acetate (pH 4,0) to which 0.1% bovine serum albumin (BSA) was added. The solution was adjusted to a concentration of 166 μg/ml 830 ng/ml or 83 ng/ml and administered with the tail vein in an amount of 1 ml/kg. The back of the rat was fixed and blood was collected just before the administration, and at predetermined intervals after the administration, from the neck vein. The amount of blood collected each time was 0.3 ml. The sampled blood was subjected to centrifugal separation at 3500 rpm for 20 minutes to separate serum and the calcium content in the separated serum was measured by TBA-380 (supplied by Toshiba) using a Wako calcium-measuring kit (o-cpc method), and the ratio of reduction of the calcium concentration in the serum was determined.

[1] = concentration 83 ng/ml, 0 hour (just before administration)
[2] = concentration 83 ng/ml, 2 hours
[3] = concentration 83 ng/ml, 4 hours
[4] = concentration 83 ng/ml, 6 hours
[5] = concentration 830 ng/ml, 0 hour (just before administration)
[6] = concentration 830 ng/ml, 1 hour
[7] = concentration 830 ng/ml, 2 hours
[8] = concentration 830 ng/ml, 4 hours
[9] = concentration 830 ng/ml, 6 hours

Compound | Serum calcium level as percent of pre-dose baseline [1] [%] | Serum calcium level as percent of pre-dose baseline (concentration 83 ng/ml, 1 hour) [%] | Serum calcium level as percent of pre-dose baseline [2] [%] | Serum calcium level as percent of pre-dose baseline [3] [%] | Serum calcium level as percent of pre-dose baseline [4] [%] | Serum calcium level as percent of pre-dose baseline [5] [%] | Serum calcium level as percent of pre-dose baseline [6] | Serum calcium level as percent of pre-dose baseline [7] | Serum calcium level as percent of pre-dose baseline [8] | Serum calcium level as percent of pre-dose baseline [9]
CC[C@H](C)[C@H](NC(=O)[C@H](C)NC(=O)[C@@H](NC(=O)[C@H](CCC(N)=O)NC(=O)[C@@H]1CCCN1C(=O)[C@H](Cc1ccc(O)cc1)NC(=O)[C@@H](NC(=O)[C@H](CCC(N)=O)NC(=O)[C@H](CC(C)C)NC(=O)[C@H](CCCCN)NC(=O)[C@H](Cc1c[nH]cn1)NC(=O)[C@H](CC(C)C)NC(=O)[C@H](CCC(=O)O)NC(=O)[C@H](CCC(N)=O)NC(=O)[C@H](CO)NC(=O)[C@H](CC(C)C)NC(=O)[C@H](CCCCN)NC(=O)CNC(=O)[C@H](CC(C)C)NC(=O)[C@@H]1CCCN1C(=O)[C@@H]1CSSC[C@H](N)C(=O)NCC(=O)N[C@@H](CC(N)=O)C(=O)N[C@@H](CC(C)C)C(=O)N[C@@H](CO)C(=O)N[C@@H]([C@@H](C)O)C(=O)N1)[C@@H](C)O)[C@@H](C)O)C(=O)NCC(=O)N[C@H](C(=O)NCC(=O)N[C@@H](C)C(=O)N1CCC[C@H]1C(N)=O)C(C)C [Peptide No. 12] (H-CGNLSTCPLGKLSQELHKLQTYPQTAIGVGAP-NH2; disulfide 1-7) | 100.0 | 88.0 | 92.4 | 83.4 | 84.0 | 109.0 | 77.0% | 86.8% | 85.8% | 88.0%
CC[C@H](C)[C@H](NC(=O)[C@H](C)NC(=O)[C@@H](NC(=O)[C@H](CCC(N)=O)NC(=O)[C@@H]1CCCN1C(=O)[C@H](Cc1ccc(O)cc1)NC(=O)[C@@H](NC(=O)[C@H](CCC(N)=O)NC(=O)[C@H](CC(C)C)NC(=O)[C@H](CCCCN)NC(=O)[C@H](Cc1c[nH]cn1)NC(=O)[C@H](CC(C)C)NC(=O)[C@H](CCC(=O)O)NC(=O)[C@H](CCC(N)=O)NC(=O)[C@H](CO)NC(=O)[C@H](CC(C)C)NC(=O)[C@H](CCCCN)NC(=O)CNC(=O)[C@H](CC(C)C)NC(=O)[C@H](CCSC)NC(=O)[C@@H]1CSSC[C@H](N)C(=O)NCC(=O)N[C@@H](CC(N)=O)C(=O)N[C@@H](CC(C)C)C(=O)N[C@@H](CO)C(=O)N[C@@H]([C@@H](C)O)C(=O)N1)[C@@H](C)O)[C@@H](C)O)C(=O)NCC(=O)N[C@@H](CO)C(=O)NCC(=O)N[C@H](C(=O)N1CCC[C@H]1C(N)=O)[C@@H](C)O [Peptide No. 5] (H-CGNLSTCMLGKLSQELHKLQTYPQTAIGSGTP-NH2; disulfide 1-7) |  |  |  |  |  | 100.0 | 76.4% | 74.2% | 70.7% | 76.4%
Peptide No. 22: novel calcitonin-derivative peptide, aminosuberic acid (carba) ring, Leu8, SEQ ID NO:22 (XGNLSTALLGKLSQELHKLQTYPQTAIGVGAP; aminosuberic acid carba ring) | 100.0 | 76.1 | 70.7 | 70.7 | 75.9 | 100.0 | 77.2% | 70.7% | 55.8% | 48.5%
CC[C@H](C)[C@H](NC(=O)[C@H](C)NC(=O)[C@@H](NC(=O)[C@H](CCC(N)=O)NC(=O)[C@@H]1CCCN1C(=O)[C@H](Cc1ccc(O)cc1)NC(=O)[C@@H](NC(=O)[C@H](CCC(N)=O)NC(=O)[C@H](CCCCN)NC(=O)[C@H](Cc1c[nH]cn1)NC(=O)[C@H](CC(C)C)NC(=O)[C@H](CCC(=O)O)NC(=O)[C@H](CCC(N)=O)NC(=O)[C@H](CO)NC(=O)[C@H](CC(C)C)NC(=O)[C@H](CCCCN)NC(=O)CNC(=O)[C@H](CC(C)C)NC(=O)[C@H](CCSC)NC(=O)[C@@H]1CSSC[C@H](N)C(=O)NCC(=O)N[C@@H](CC(N)=O)C(=O)N[C@@H](CC(C)C)C(=O)N[C@@H](CO)C(=O)N[C@@H]([C@@H](C)O)C(=O)N1)[C@@H](C)O)[C@@H](C)O)C(=O)NCC(=O)N[C@@H](CO)C(=O)NCC(=O)N[C@H](C(=O)N1CCC[C@H]1C(N)=O)[C@@H](C)O [Peptide No. 6] (H-CGNLSTCMLGKLSQELHKQTYPQTAIGSGTP-NH2; disulfide 1-7) |  |  |  |  |  | 100.0 | 73.1% | 68.1% | 74.6% | 92.1%
CC[C@H](C)[C@H](NC(=O)[C@H](C)NC(=O)[C@@H](NC(=O)[C@H](CCC(N)=O)NC(=O)[C@@H]1CCCN1C(=O)[C@H](Cc1ccc(O)cc1)NC(=O)[C@@H](NC(=O)[C@H](CCC(N)=O)NC(=O)[C@H](CC(C)C)NC(=O)[C@H](CCCCN)NC(=O)[C@H](Cc1c[nH]cn1)NC(=O)[C@H](CC(C)C)NC(=O)[C@H](CCC(=O)O)NC(=O)[C@H](CCC(N)=O)NC(=O)[C@H](CO)NC(=O)[C@H](CC(C)C)NC(=O)[C@H](CCCCN)NC(=O)CNC(=O)[C@H](CC(C)C)NC(=O)[C@H](CC(C)C)NC(=O)[C@@H]1CCCNC(=O)CC[C@H](N)C(=O)N[C@@H](CC(N)=O)C(=O)N[C@@H](CC(C)C)C(=O)N[C@@H](CO)C(=O)N[C@@H]([C@@H](C)O)C(=O)N1)[C@@H](C)O)[C@@H](C)O)C(=O)NCC(=O)N[C@H](C(=O)NCC(=O)N[C@@H](C)C(=O)N1CCC[C@H]1C(N)=O)C(C)C [Peptide No. 29] (H-ENLST[Orn]LLGKLSQELHKLQTYPQTAIGVGAP-NH2; lactam 1-6) | 100.0 | 84.6 | 91.7 | 83.2 | 76.6 | 100.0 | 75.0% | 84.7% | 78.0% | 73.1%
CC[C@H](C)[C@H](NC(=O)[C@H](C)NC(=O)[C@@H](NC(=O)[C@H](CCC(N)=O)NC(=O)[C@@H]1CCCN1C(=O)[C@H](Cc1ccc(O)cc1)NC(=O)[C@@H](NC(=O)[C@H](CCC(N)=O)NC(=O)[C@H](CC(C)C)NC(=O)[C@H](CCCCN)NC(=O)[C@H](Cc1c[nH]cn1)NC(=O)[C@H](CC(C)C)NC(=O)[C@H](CCC(=O)O)NC(=O)[C@H](CCC(N)=O)NC(=O)[C@H](CO)NC(=O)[C@H](CC(C)C)NC(=O)[C@H](CCCCN)NC(=O)CNC(=O)[C@H](CC(C)C)NC(=O)[C@H](CCSC)NC(=O)[C@@H]1CSSC[C@H](N)C(=O)NCC(=O)N[C@@H](CC(N)=O)C(=O)N[C@@H](CC(C)C)C(=O)N[C@@H](CO)C(=O)N[C@@H]([C@@H](C)O)C(=O)N1)[C@@H](C)O)[C@@H](C)O)C(=O)NCC(=O)N[C@H](C(=O)NCC(=O)N[C@@H](C)C(=O)N1CCC[C@H]1C(N)=O)C(C)C [Peptide No. 1] (H-CGNLSTCMLGKLSQELHKLQTYPQTAIGVGAP-NH2; disulfide 1-7) | 100.0 | 74.3 | 81.1 | 86.9 | 83.5 | 100.0 | 85.6% and 74.3% and 70.2% | 81.6% and 68.4% and 64.4% | 76.8% and 68.0% and 60.6% | 88.5% and 84.8% and 78.3%
